Data taken from patent EP4685153A1 (priority 2023, dated 2024).
Residues, ends and D or L forms follow the SMILES beside them. *: point of attachment. Succinyl(4-O-cholesteryl) = CC(C)CCC[C@@H](C)[C@H]1CC[C@H]2[C@@H]3CC=C4C[C@@H](OC(=O)CCC(=O)*)CC[C@]4(C)[C@H]3CC[C@]12C

Key:
[1] = system: HIV-1 strain JRFL pseudovirus; details: for IC50: strain JRFL pseudovirus
[2] = biological target: N44 (Human immunodeficiency virus type 1 group M subtype B, UniProt P04578); test: Circular dichroism of lipopeptide complex with target sequence N44; details: CD; for Tm value of the mixture with N44: [θ]222, 20-98 °C at 2 °C/min; for α-helix content of the mixture with N44: lipopeptide and N44 each 10 µM in PBS pH 7.2
[3] = system: HIV-1 strain SG3.1 living virus; details: for IC50: strain SG3.1 living virus
[4] = system: representative pandemic HIV-1 strain pseudoviruses; details: for IC50: representative pandemic strain pseudoviruses, 48 h; for inhibitory activity against 12 pseudoviruses higher than that of the T20: versus T20
[5] = system: HIV-1 strain NL4-3 pseudovirus; details: for IC50: strain NL4-3 pseudovirus
[6] = system: T20-resistant mutant strains (HIV-1 strain NL4-3); details: for IC50: T20-resistant mutant strains ( strain NL4-3, 48 h); for inhibitory activity against 12 drug-resistant mutant strains higher than that of the LP-98: versus LP-98
[7] = system: HIV-1 envelope protein (Env); test: Env-mediated cell-cell fusion inhibition (DSP reporter system); details: for IC50: read-out: average IC50 value, membrane fusion of 12 viruses, average over Env of 12 representative pandemic HIV-1 strains; for inhibitory activity against membrane fusions of 12 viruses higher than that of the T20: versus T20
[8] = Circular dichroism of lipopeptide alone; type: physicochemical; details: CD, 10 µM in PBS pH 7.2
[9] = system: MARV; details: 48 h
[10] = system: seven test cells; test: In vitro cytotoxicity (CCK-8), average over seven test cells; type: cell-based; details: CC50/IC50
Experimental: (§1) The in vitro cytotoxicity was detected by using a CCK-8 cell proliferation/toxicity assay kit (manufacturer: Abbkine, Cat. No.: KTC 011001). […] By using GraphPad Prism software, the inhibition rate curve was fitted and the half-maximal cytotoxic concentration (CC50) of the drug was calculated.

[11] = Temperature stability experiment (antiviral activity after storage); details: 300 µM aqueous solution, room temperature or 37 °C, various time periods; NL4-3 pseudovirus, TZM-bl cells
[12] = In vitro cytotoxicity (CCK-8), TZM-bl cells; type: cell-based; details: human, CCK-8, 48 hours
Experimental: as §1

[13] = system: replicative HIV-1 strain JR-CSF; details: for IC50: replicative strain JR-CSF, 48 h
[14] = In vitro cytotoxicity (CCK-8), Huh-7 cells; type: cell-based; details: human, CCK-8, 48 hours
Experimental: as §1

[15] = system: H7N9; details: 48 h
[16] = system: protease K, trypsin, or α-chymotrypsin
[17] = system: EBOV; details: 48 h
[18] = system: RABV; details: 48 h
[19] = In vitro cytotoxicity (CCK-8), Hep-2 cells; type: cell-based; details: human, CCK-8, 48 hours
Experimental: as §1

[20] = In vitro cytotoxicity (CCK-8), 293T/ACE2 cells; type: cell-based; details: human, CCK-8, 48 hours
Experimental: as §1

[21] = system: MERS-CoV; details: 48 h
[22] = In vitro cytotoxicity (CCK-8), MT-4 cells; type: cell-based; details: human, CCK-8, 48 hours
Experimental: as §1

[23] = Human serum stability experiment (antiviral activity after incubation); details: 20% human serum, 37 °C, 0 to 240 minutes; NL4-3 pseudovirus, TZM-bl cells
[24] = system: VSV; details: 48 h
[25] = In vitro cytotoxicity (CCK-8), HEK293T cells; type: cell-based; details: human, CCK-8, 48 hours
Experimental: as §1

[26] = In vitro cytotoxicity (CCK-8), MDCK cells; type: cell-based; details: dog, CCK-8, 48 hours
Experimental: as §1

[27] = LP-124 versus LP-122, LP-125 versus LP-123

Sequence of N44 (P04578 538-581): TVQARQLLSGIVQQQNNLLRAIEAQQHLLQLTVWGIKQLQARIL

## CC[C@H](C)[C@H](NC(=O)[C@H](CCCCN)NC(=O)[C@H](CCCCN)NC(=O)[C@H](CCC(=O)O)NC(=O)[C@H](Cc1c[nH]c2ccccc12)NC(=O)[C@H](CCC(=O)O)NC(=O)[C@H](CCC(=O)O)NC(=O)[C@H](Cc1c[nH]c2ccccc12)NC(=O)[C@@H](NC(C)=O)[C@@H](C)O)C(=O)N[C@@H](CCC(=O)O)C(=O)N[C@@H](CCC(=O)O)C(=O)N[C@@H](CC(C)C)C(=O)N[C@@H](CCC(=O)O)C(=O)N[C@@H](CCCCN)C(=O)N[C@@H](CCCCN)C(=O)N[C@H](C(=O)N[C@@H](CCC(=O)O)C(=O)N[C@@H](CCC(=O)O)C(=O)N[C@@H](CC(C)C)C(=O)N[C@@H](CC(C)C)C(=O)N[C@@H](CCCCN)C(=O)N[C@@H](CCCCN)C(=O)N[C@@H](C)C(=O)N[C@@H](CCC(=O)O)C(=O)N[C@@H](CCC(=O)O)C(=O)N[C@@H](CCC(N)=O)C(=O)N[C@@H](CCC(N)=O)C(=O)N[C@@H](CCCCN)C(=O)N[C@@H](CCCCN)C(=O)N[C@@H](CC(N)=O)C(=O)N[C@@H](CCC(=O)O)C(=O)N[C@@H](C)C(=O)N[C@@H](C)C(=O)N[C@@H](C)C(=O)N[C@@H](CCCCN)C(=O)N[C@@H](CCCCNC(=O)CCC(=O)O[C@H]1CC[C@@]2(C)C(=CC[C@H]3[C@@H]4CC[C@H]([C@H](C)CCCC(C)C)[C@@]4(C)CC[C@@H]32)C1)C(N)=O)[C@@H](C)CC [LP-123] (Ac-TWEEWEKKIEELEKKIEELLKKAEEQQKKNEAAAKK(Succinyl(4-O-cholesteryl))-NH2)
[1]
  IC50: 0.0146 nM
[2]
  Tm value of the mixture with N44: > 98 °C
  α-helix content of the mixture with N44: 79%
[3]
  IC50: 0.00368 nM
[4]
  IC50: 0.0274 nM
  inhibitory activity against 12 pseudoviruses higher than that of the T20: 732 folds
[5]
  IC50: 0.0181 nM
[6]
  IC50: 0.0555 nM
  inhibitory activity against 12 drug-resistant mutant strains higher than that of the LP-98: 48 folds
[7]
  IC50: 0.024 nM
  inhibitory activity against membrane fusions of 12 viruses higher than that of the T20: 466 folds
[8]
  α-helix content, lipopeptide alone: 56%

## CC[C@H](C)[C@H](NC(=O)[C@H](CCCCN)NC(=O)[C@H](CCCCN)NC(=O)[C@H](CCC(=O)O)NC(=O)[C@H](Cc1ccc(O)cc1)NC(=O)[C@H](CCC(=O)O)NC(=O)[C@H](CCC(=O)O)NC(=O)[C@H](Cc1ccc(O)cc1)NC(=O)[C@@H](NC(C)=O)[C@@H](C)O)C(=O)N[C@@H](CCC(=O)O)C(=O)N[C@@H](CCC(=O)O)C(=O)N[C@@H](CC(C)C)C(=O)N[C@@H](CCC(=O)O)C(=O)N[C@@H](CCCCN)C(=O)N[C@@H](CCCCN)C(=O)N[C@H](C(=O)N[C@@H](CCC(=O)O)C(=O)N[C@@H](CCC(=O)O)C(=O)N[C@@H](CC(C)C)C(=O)N[C@@H](CC(C)C)C(=O)N[C@@H](CCCCN)C(=O)N[C@@H](CCCCN)C(=O)N[C@@H](C)C(=O)N[C@@H](CCC(=O)O)C(=O)N[C@@H](CCC(=O)O)C(=O)N[C@@H](CCC(N)=O)C(=O)N[C@@H](CCC(N)=O)C(=O)N[C@@H](CCCCN)C(=O)N[C@@H](CCCCN)C(=O)N[C@@H](CC(N)=O)C(=O)N[C@@H](CCC(=O)O)C(=O)N[C@@H](C)C(=O)N[C@@H](C)C(=O)N[C@@H](C)C(=O)N[C@@H](CCCCN)C(=O)N[C@@H](CCCCNC(=O)CCC(=O)O[C@H]1CC[C@@]2(C)C(=CC[C@H]3[C@@H]4CC[C@H]([C@H](C)CCCC(C)C)[C@@]4(C)CC[C@@H]32)C1)C(N)=O)[C@@H](C)CC [LP-125] (Ac-TYEEYEKKIEELEKKIEELLKKAEEQQKKNEAAAKK(Succinyl(4-O-cholesteryl))-NH2)
[1]; [27]
  activity increased as compared to its template, JRFL pseudovirus: ~3 folds
[1]
  IC50: 0.00578 nM
[2]
  Tm value of the mixture with N44: 91 °C
  α-helix content of the mixture with N44: 89%
[3]; [27]
  activity increased as compared to its template, SG3.1 living virus: ~3 folds
[3]
  IC50: 0.00111 nM
[4]
  IC50: 0.00422 nM
  inhibitory activity against 12 pseudoviruses higher than that of the T20: 4752 folds
[5]; [27]
  activity increased as compared to its template, NL4-3 pseudovirus: about 5 folds
[5]
  IC50: 0.00343 nM
[6]
  IC50: 0.00629 nM
  inhibitory activity against 12 drug-resistant mutant strains higher than that of the LP-98: 423 folds
[7]
  IC50: 0.0119 nM
  inhibitory activity against membrane fusions of 12 viruses higher than that of the T20: 942 folds
[8]
  α-helix content, lipopeptide alone: 78%

## CC[C@H](C)[C@H](NC(=O)[C@H](CCCCN)NC(=O)[C@H](CCCCN)NC(=O)[C@H](CCC(=O)O)NC(=O)[C@H](CC(C)C)NC(=O)[C@H](CCC(=O)O)NC(=O)[C@H](CCC(=O)O)NC(=O)[C@H](CC(C)C)NC(=O)[C@H](CCC(=O)O)NC(=O)[C@H](CCCCN)NC(=O)[C@H](CCC(=O)O)NC(=O)[C@H](Cc1ccc(O)cc1)NC(=O)[C@H](CCC(=O)O)NC(=O)[C@H](CCC(=O)O)NC(=O)[C@H](Cc1ccc(O)cc1)NC(=O)[C@H](CCC(=O)O)NC(C)=O)C(=O)N[C@@H](CCC(=O)O)C(=O)N[C@@H](CCC(=O)O)C(=O)N[C@@H](CC(C)C)C(=O)N[C@@H](CC(C)C)C(=O)N[C@@H](CCCCN)C(=O)N[C@@H](CCCCN)C(=O)N[C@@H](C)C(=O)N[C@@H](CCC(=O)O)C(=O)N[C@@H](CCC(=O)O)C(=O)N[C@@H](CCC(N)=O)C(=O)N[C@@H](CCC(N)=O)C(=O)N[C@@H](CCCCN)C(=O)N[C@@H](CCCCN)C(=O)N[C@@H](CC(N)=O)C(=O)N[C@@H](CCC(=O)O)C(=O)N[C@@H](C)C(=O)N[C@@H](C)C(=O)N[C@@H](C)C(=O)N[C@@H](CCCCN)C(=O)N[C@@H](CCCCNC(=O)CCC(=O)O[C@H]1CC[C@@]2(C)C(=CC[C@H]3[C@@H]4CC[C@H]([C@H](C)CCCC(C)C)[C@@]4(C)CC[C@@H]32)C1)C(N)=O [LP-127] (Ac-EYEEYEKELEELEKKIEELLKKAEEQQKKNEAAAKK(Succinyl(4-O-cholesteryl))-NH2)
[9]
  IC50: 144 nM
[1]
  IC50: 0.00563 nM
[10]
  therapeutic selective index (SI): very high
[2]
  Tm value of the mixture with N44: 92 °C
  α-helix content of the mixture with N44: 68%
[11]
  change in antiviral activity after treatment at different temperatures: no significant change
[3]; TZM-bl cells, versus T20
  inhibitory activity higher than that of the T20, SG3.1: 1427 folds
[4]
  IC50: 0.00489 nM
  inhibitory activity against 12 pseudoviruses higher than that of the T20: 4101 folds
[12]
  CC50 at 48 h: 10200 nM
[13]; TZM-bl cells, versus T20
  inhibitory activity higher than the T20, JR-CSF: 539 folds
[13]
  IC50: 0.0104 nM
[14]
  CC50 at 48 h: 31300 nM
[15]
  IC50: 415 nM
[16]
  change in antiviral activity after treatment with three proteases: no significant change
[17]
  IC50: 61.7 nM
[18]
  IC50: 1730 nM
[19]
  CC50 at 48 h: 16500 nM
[5]
  IC50: 0.00501 nM
[20]
  CC50 at 48 h: 14400 nM
[6]
  IC50: 0.00702 nM
  inhibitory activity against 12 drug-resistant mutant strains higher than that of the LP-98: 379 folds
[7]
  IC50: 0.00497 nM
  inhibitory activity against membrane fusions of 12 viruses higher than that of the T20: 2256 folds
[21]
  IC50: 383 nM
[22]
  CC50 at 48 h: 15400 nM
[23]
  change in antiviral activity after treatment with human serum: no significant change
[24]
  IC50: 1510 nM
[25]
  CC50 at 48 h: 9070 nM
[8]
  α-helix content, lipopeptide alone: 57%
[26]
  CC50 at 48 h: 12900 nM

## Enfuvirtide
[3]
  IC50: 2.91 nM
[4]
  IC50: 20.1 nM
[13]
  IC50: 5.6 nM
[7]
  IC50: 11.2 nM
